Converted amounts (≈) assume the structure as drawn.
Assays:
[1] = system: Enterobacter cloacae IF012937; assay: Bactericidal test (MIC), Enterobacter cloacae IF012937; format: cell-based; details: (8) Enterobacter cloacae IF012937
Excerpt: (§1) Results of bactericidal tests (MIC, r/ml) on the penicillin derivatives of this invention prepared in the above examples are shown in the following table.

[2] = system: Escherichia Coli NIHJ JC-2; assay: Bactericidal test (MIC), Escherichia Coli NIHJ JC-2; format: cell-based; details: NIHJJC2; (5) Escherichia Coli NIHJ JC-2
Excerpt: as §1

[3] = Acute toxicity values [(LD50), mouse]; details: in vivo
Excerpt: Acute toxicity values [(LD50), mouse] of some penicillin derivatives of this invention are illustrated in the following table.

Bacillus subtilis = assay: Bactericidal test (MIC), Bacillus subtilis; format: cell-based; details: (3) Bacillus subtilis
Excerpt: as §1

[4] = system: Pseudomonas aeruginosa IFO-3080; assay: Bactericidal test (MIC), Pseudomonas aeruginosa IFO-3080; format: cell-based; details: IFO3080; (12) Pseudomonas aeruginosa IFO-3080; read-out: MIC
Excerpt: as §1

[5] = system: Staphylococcus aureus 209-p; assay: Bactericidal test (MIC), Staphylococcus aureus 209-p; format: cell-based; details: (1) Staphylococcus aureus 209-p
Excerpt: as §1

[6] = system: Pseudomonas aeruginosa 0-37; assay: Bactericidal test (MIC), Pseudomonas aeruginosa 0-37; format: cell-based; details: 037; (13) Pseudomonas aeruginosa 0-37
Excerpt: as §1

[7] = system: Staphylococcus aureus 1248; assay: Bactericidal test (MIC), Staphylococcus aureus 1248; format: cell-based; details: (2) Staphylococcus aureus 1248; read-out: MIC
Excerpt: as §1

Rettgerella var. Tid-21 = assay: Bactericidal test (MIC), Rettgerella var. Tid-21; format: cell-based; details: (10) Rettgerella var. Tid-21; read-out: MIC
Excerpt: as §1

[8] = system: Pseudomonas aeruginosa GN-315; assay: Bactericidal test (MIC), Pseudomonas aeruginosa GN-315; format: cell-based; details: GN315; (15) Pseudomonas aeruginosa GN-315
Excerpt: as §1

Serratia G-18 = assay: Bactericidal test (MIC), Serratia G-18; format: cell-based; details: G18; (11) Serratia G-18; read-out: MIC
Excerpt: as §1

Morganella var. G-2 = assay: Bactericidal test (MIC), Morganella var. G-2; format: cell-based; details: VAR.G2; (9) Morganella var. G-2; read-out: MIC
Excerpt: as §1

[9] = system: Salmonella typhimurium G-20; assay: Bactericidal test (MIC), Salmonella typhimurium G-20; format: cell-based; details: Salmonella enterica; (4) Salmonella typhimurium G-20
Excerpt: as §1

Enterobactor cloacae 147 = assay: Bactericidal test (MIC), Enterobactor cloacae 147; format: cell-based; details: (7) Enterobactor cloacae 147
Excerpt: as §1

[10] = system: Pseudomonas aeruginosa Tid-53; assay: Bactericidal test (MIC), Pseudomonas aeruginosa Tid-53; format: cell-based; details: TID53; (14) Pseudomonas aeruginosa Tid-53
Excerpt: as §1

[11] = system: Klebsiella neumoniae ATCC10031; assay: Bactericidal test (MIC), Klebsiella neumoniae ATCC10031; format: cell-based; details: (6) Klebsiella neumoniae ATCC10031; read-out: MIC
Excerpt: as §1

[12] = system: Pseudomonas aeruginosa 130; assay: Bactericidal test (MIC), Pseudomonas aeruginosa 130; format: cell-based; details: (16) Pseudomonas aeruginosa 130
Excerpt: as §1

[13] = Rates of protein fixation (human serum protein); format: in vitro ADME; details: read-out: Rate of protein fixation (converted)
Excerpt: Rates of protein fixation (human serum protein) of the penicillin derivatives of this invention are illustrated as follows: […]

fraction unbound [13] | Compound | MIC [1] [µg/mL] | MIC [2] [µg/mL] | LD50 ([3]; Oral) [mg/kg] | LD50 ([3]; ip, Intraabdominal) [mg/kg] | MIC (Bacillus subtilis) [µg/mL] | MIC [4] [µg/mL] | MIC [5] [µg/mL] | MIC [6] [µg/mL] | MIC [7] [µg/mL] | MIC (Rettgerella var. Tid-21) [µg/mL] | MIC [8] [µg/mL] | MIC (Serratia G-18) [µg/mL] | MIC (Morganella var. G-2) [µg/mL] | MIC [9] [µg/mL] | MIC (Enterobactor cloacae 147) [µg/mL] | MIC [10] [µg/mL] | MIC [11] [µg/mL] | MIC [12] [µg/mL]
 | COc1cccc2cc(C(=O)N[C@@H](C(=O)N[C@@H]3C(=O)N4[C@@H]3SC(C)(C)[C@@H]4C(=O)O)c3ccc(O)cc3)c(=O)oc12 [Example 18, D(-)-α-(8-Methoxycoumarin-3-carbonamido)-p-hydroxylbenzylpenicillin] | 3.13 (≈ 5.51 µM) | < 0.4 | > 4000 | 2000 | < 0.4 | 0.8 (≈ 1.41 µM) | < 0.4 | 12.5 (≈ 22 µM) | 1.56 (≈ 2.75 µM) | 3.13 (≈ 5.51 µM) | 3.13 (≈ 5.51 µM) | 6.25 (≈ 11 µM) | 3.13 (≈ 5.51 µM) | < 0.4 | 3.13 (≈ 5.51 µM) | 3.13 (≈ 5.51 µM) | 0.8 (≈ 1.41 µM) | 1.56 (≈ 2.75 µM)
0.2 | CC1(C)S[C@@H]2[C@H](NC(=O)[C@H](NC(=O)c3cc4cc(Br)ccc4oc3=O)c3ccccc3)C(=O)N2[C@H]1C(=O)O [Example 3, D(-)-α-(6-Bromocoumarin-3-carbonamido)benzylpenicillin] | 25 (≈ 41.6 µM) | < 0.4 |  |  | < 0.4 | 1.56 (≈ 2.6 µM) | < 0.4 | 25 (≈ 41.6 µM) | 1.56 (≈ 2.6 µM) | 6.25 (≈ 10.4 µM) | 6.25 (≈ 10.4 µM) | 25 (≈ 41.6 µM) | 6.25 (≈ 10.4 µM) | < 0.4 | 3.13 (≈ 5.21 µM) | 6.25 (≈ 10.4 µM) | 1.56 (≈ 2.6 µM) | 1.56 (≈ 2.6 µM)
0.33 | CC1(C)S[C@@H]2[C@H](NC(=O)[C@H](NC(=O)c3cc4cc(Cl)ccc4oc3=O)c3ccccc3)C(=O)N2[C@H]1C(=O)O [Example 2, D(-)-α-(6-Chlorocoumarin-3-carbonamido)benzylpenicillin] | 25 (≈ 45 µM) | < 0.4 |  |  | < 0.4 | 3.13 (≈ 5.63 µM) | < 0.4 | 50 (≈ 89.9 µM) | 1.56 (≈ 2.81 µM) | 12.5 (≈ 22.5 µM) | 25 (≈ 45 µM) | 50 (≈ 89.9 µM) | 12.5 (≈ 22.5 µM) | < 0.4 | 25 (≈ 45 µM) | 25 (≈ 45 µM) | 1.56 (≈ 2.81 µM) | 6.25 (≈ 11.2 µM)
0.55 | CC1(C)S[C@@H]2[C@H](NC(=O)[C@H](NC(=O)c3cc4ccccc4oc3=O)c3ccc(O)cc3)C(=O)N2[C@H]1C(=O)O [Example 16, D(-)-α-(Coumarin-3-carbonamido)-p-hydroxybenzylpenicillin] | 25 (≈ 46.5 µM) | < 0.4 |  |  | < 0.4 | 0.8 (≈ 1.49 µM) | < 0.4 | 25 (≈ 46.5 µM) | 1.56 (≈ 2.9 µM) | 1.56 (≈ 2.9 µM) | 3.13 (≈ 5.82 µM) | 50 (≈ 93 µM) | 12.5 (≈ 23.3 µM) | < 0.4 | 6.25 (≈ 11.6 µM) | 6.25 (≈ 11.6 µM) | 6.25 (≈ 11.6 µM) | 1.56 (≈ 2.9 µM)
 | COc1ccc2oc(=O)c(C(=O)N[C@@H](C(=O)N[C@@H]3C(=O)N4[C@@H]3SC(C)(C)[C@@H]4C(=O)O)c3ccccc3)cc2c1 [Example 7, D(-)-α-(6-Methoxycoumarin-3-carbonamido)benzylpenicillin] | 3.13 (≈ 5.67 µM) | < 0.4 |  |  | < 0.4 | 1.56 (≈ 2.83 µM) | < 0.4 | 25 (≈ 45.3 µM) | 1.56 (≈ 2.83 µM) | 6.25 (≈ 11.3 µM) | 3.13 (≈ 5.67 µM) | 12.5 (≈ 22.7 µM) | 6.25 (≈ 11.3 µM) | < 0.4 | 3.13 (≈ 5.67 µM) | 3.13 (≈ 5.67 µM) | < 0.4 | 1.56 (≈ 2.83 µM)

Compound | fraction unbound [13] | MIC [1] [µg/mL] | MIC [2] [µg/mL] | LD50 ([3]; Oral) [mg/kg] | LD50 ([3]; ip, Intraabdominal) [mg/kg] | MIC (Bacillus subtilis) [µg/mL] | MIC [4] [µg/mL] | MIC [5] [µg/mL] | MIC [6] [µg/mL] | MIC [7] [µg/mL] | MIC (Rettgerella var. Tid-21) [µg/mL] | MIC [8] [µg/mL] | MIC (Serratia G-18) [µg/mL] | MIC (Morganella var. G-2) [µg/mL] | MIC [9] [µg/mL] | MIC (Enterobactor cloacae 147) [µg/mL] | MIC [10] [µg/mL] | MIC [11] [µg/mL] | MIC [12] [µg/mL]
CC(=O)Oc1ccc2oc(=O)c(C(=O)N[C@@H](C(=O)N[C@@H]3C(=O)N4[C@@H]3SC(C)(C)[C@@H]4C(=O)O)c3ccccc3)cc2c1 [Example 9, D(-)-α-(6-Acetoxycoumarin-3-carbonamido)benzylpenicillin] | 0.2 | 25 (≈ 43.1 µM) | < 0.4 | > 4000 | 2000 | < 0.4 | 0.8 (≈ 1.38 µM) | < 0.4 | 25 (≈ 43.1 µM) | 3.13 (≈ 5.4 µM) | 3.13 (≈ 5.4 µM) | 6.25 (≈ 10.8 µM) | 25 (≈ 43.1 µM) | 6.25 (≈ 10.8 µM) | < 0.4 | 3.13 (≈ 5.4 µM) | 6.25 (≈ 10.8 µM) | < 0.4 | < 0.4
